# Measured values taken from patent US6017958A, “Method of treating malignant tumors with thyroxine analogues having no significant hormonal activity” (Octamer, Inc., priority 1997, dated 2000).
# Read-outs that look alike come from different tables or passages of the source.
# Legend:
# [1] = tested on: protein phosphatase 2A; test: Activation of purified protein phosphatase 2A (32P-histone H1 dephosphorylation); assay type: biochemical; conditions: 50 μM, 10 min preincubation
# Method: 2.1 Preparation of ^32 P-labeled Histone H1 Substrate
# Histone H1 was phosphorylated with protein kinase C (Upstate Biotechnology,Inc., Lake Placid, N.Y.) in a volume of 100 μL according to standard protocols. Alternatively, histone H1 was phosphorylated with p34cdc2 kinase purified from rapidly multiplying Mytilus Edulis embryos at 4-8 stage after isolation with the p^13 -Suc agarose technique (Smythe and Newport, 1992, "Coupling of Mitosis to the Completion of S Phase in Xenopus Occurs via Modulation of the Tyrosine Kinase that Phosphorylates p34cdc2," Cell 68:787-797).
# 125 ng purified protein phosphatase 2A (Upstate Biotechnology, Inc., Lake Placid, N.Y.; Usui et al., 1983, J. Biol. Chem. 258:10455-10463) was preincubated with thyroxine analogue (50 μM) in buffer (20 mM MOPS or Tris, pH 7.5, 1 mM MgCl2, 60 μM β-mercaptoethanol) for 10 min. at 23° C. Total reaction volume was 20 μL. ^32 P-labeled histone H1 substrate (10 μg, 10^5 cpm) was added and the dephosphorylation reaction allowed to proceed for 5 min. at 23° C., after which time the reaction was quenched by addition of 2 μL Laeimli buffer. An identical reaction containing 125 ng untreated protein phosphatase 2A was run as a control.
# Phosphorylated and dephosphorylated histone H1 were separated by gel electrophoresis (12% SDS-PAGE), bands containing phosphorylated histone H1 excised and assayed for ^32 P activity via scintillation counter.
# The velocity of dephosphorylation in 5 min. is an indication of the initial velocity (Vinit) of the dephosphorylation reaction.
# [2] = tested on: SK-Br-3 (mammary cancer); test: Cytocidal action/growth inhibition, SK-Br-3; assay type: cell-based; conditions: Homo sapiens
# Method: Seven human cancer cell lines were obtained from the American Tissue Culture Collection (Rockville, Md.) and maintained in the recommended growth media. Cells were seeded into wells (2 cm^2) at a density of 2×10^4 cells/cm^2. Various concentrations of Compounds 1-13 were added to the media at the time of seeding.
# The cultures were incubated for 72 hours at 37° C. (5% CO2 atmosphere). Following incubation, cells were detached with trypsin and counted in a hemocytometer.
# I100 designates the concentration at which no viable cells remained; I50 the concentration at which 50% viable cells remained, as compared to a control.
# E-ras 20 cells were cultured as reported, Bauer et al., 1996, "Modification of growth related enzymatic pathways and apparent loss of tumorigenicity of a ras-transformed bovine endothelial cell line by treatment with 5-iodo-6-amino-1,2-benzopyrone (INH2 BP)" Intl. J. Oncol. 8:239-252; HT-144 (melanoma), DU-145 (prostatic cancer), HeLa (cervical cancer), HL 60 (promyelocytic leukemia), MDA-MB-231 (mammary cancer), SK-Br-3 (mammary cancer), T47D (ductal mammary cancer), A559 (lung cancer) were obtained from American Type Culture Collection (Rockville, Md.) and cultured in prescribed media. The effect of DIME was tested in cultures with a starting cell density of 2×10^4 cells per cm^2 and comparison of the effect of DIME on cell growth (intact cells identified by Trypan blue exclusion) was assayed by direct cell counting after trypsinization in a hemocytometer 72 hours after drug addition.
# For DIME-exposure experiments cells were seeded into 2 cm^2 wells at a density of 2×10^4 cells/cm^2. DIME at various concentrations was added to the medium at the time of seeding. The cell cultures were then incubated for 3 days (37° C. in 5% at CO2 atmosphere).
# [3] = tested on: E-ras 20 cells (E-ras transformed bovine endothelial cells); test: Tumorigenicity of pretreated E-ras 20 cells in athymic nude mice; assay type: in vivo, bovine cells in nude mice; conditions: 10 μM
# Method: E-ras transformed bovine endothelial cells (Bauer et al., 1996, Intl. J. Oncology 8:239-252) were exposed to 10 μM DIME for […]. The DIME-treated cells (10^5 or 10^6 cells/100 μL) were injected subcutaneously into nude mice and tumor progression followed for 25 days.
# Tumorigenicity of E-ras 20 Cells in athymic nude mice was assayed as described previously. Bauer et al., 1996, "Modification of growth related enzymatic pathways and apparent loss of tumorigenicity of a ras-transformed bovine endothelial cell line by treatment with 5-iodo-6-amino-1,2-benzopyrone (INH2 BP)" Intl. J. Oncol. 8:239-252. The in vivo antitumorigenic action of DIME was assayed on athymic mice inoculated with 10^6 MDA-MB-231 cells, as in the tumorgenicity assay. In about 10-14 days when subcutaneous tumors appeared, DIME treatment consisting of p.o. administration of DIME suspension (once a day) was commenced and continued for 28-32 days as reported, Kun et al., 1996, "Induction of tumor apotosis by methyl-3,5-diiodo-4-(4'-methoxyphenoxy) benzoate (DIME)", Abstract No. 102, Int. J. Oncol. 9:supplement 829.
# The structural specificity of DIME and its homologs and analogs can be assessed by examining Table 7 and Table 8. We have prepared 17 novel structural analogs of DIME and compared the antitumor activity of 10 of the compounds (Table 8) which appears sufficient to draw some general conclusions. The biological assay chosen was the determination of antitumorigenic action of the drugs on the in vivo tumorigenicity of E-ras cells in nude mice, Bauer et al., 1996, "Modification of growth related enzymatic pathways and apparent loss of tumorigenicity of a ras-transformed bovine endothelial cell line by treatment with 5-iodo-6-amino-1,2-benzopyrone (INH2 BP)" Intl. J. Oncol. 8:239-252. E-ras 20 cells (10^5 or 10^6) were incubated with 10 μM DIME or analogs for 4 days, then 10^5 and 10^6 cells were inoculated subcutaneously into nude mice (5 per test) and rates of tumor formation quantitated by direct tumor volume measurements (cf. 2). […] Identical antitumorigenic tests were performed with nine DIME analogs and taking the effect of DIME as 100% (comparing tumor sizes at day 25) the antitumor efficacy was calculated as percent of DIME activity. […] Results summarized in Table 8 illustrate that substituents in R1 and R2 determine antitumor efficacy.
# The efficacy of DIME analogs on in vivo tumorigenicity of Eras 20 cells i
# athymic mice was compared to that of DIME (compound 1) which was taken as
# 100, determining the size of tumor reduction at day 25. Pretreatment with
# DIME or its analogs (Table 7) was with 10 μM for 4 days prior to s.c.
compound,measurement,setting,value
"COC(=O)c1cc(I)c(Oc2ccc(OC)cc2)c(I)c1 [Compound 1, Methyl 3,5-diiodo-4-(4'-methoxyphenoxy)benzoate]",Activity/5 min (initial velocity of histone H1 dephosphorylation),"[1]; control 10217 ± 1708, average of three samples",24655 ± 8600 cpm
same,increase of Vinit of histone H1 dephosphorylation,[1],more than doubles Vinit
same,IC50,"[2]; SK-BR-3, 72 h, day 3, Table 11, read-out: I50 (day 3)",600 nM
same,IC50,"[2]; SK-BR-3, 72 h, Table 4, read-out: I50",600 nM
same,IC100,"[2]; SK-BR-3, 72 h, Table 4, read-out: I100 (no viable cells remained)",5 µM
same,tumorigenicity of pretreated cells,"[3]; 3 days pretreatment, followed 25 days",nearly completely abolished tumorigenicity
same,tumor formation from pretreated cells (FIG. 4),[3]; 4 days pretreatment,tumor formation was completely abrogated
same,"Efficacy (inhibition of E-ras 20 tumorigenicity, DIME = 100)","[3]; 4 days pretreatment, tumor size at day 25",100%
